Assay results published in PMC9533460 (RSC Chemical Biology, 2022).

Legend:
[1] = biological target: T1, homoserine-dehydrogenase (HD) (Pseudomonas alvandae, UniProt P0DXC5); test: NADH formation; type: biochemical; settings: homoserine as co-substrate
T1 sequence (P0DXC5 1-352): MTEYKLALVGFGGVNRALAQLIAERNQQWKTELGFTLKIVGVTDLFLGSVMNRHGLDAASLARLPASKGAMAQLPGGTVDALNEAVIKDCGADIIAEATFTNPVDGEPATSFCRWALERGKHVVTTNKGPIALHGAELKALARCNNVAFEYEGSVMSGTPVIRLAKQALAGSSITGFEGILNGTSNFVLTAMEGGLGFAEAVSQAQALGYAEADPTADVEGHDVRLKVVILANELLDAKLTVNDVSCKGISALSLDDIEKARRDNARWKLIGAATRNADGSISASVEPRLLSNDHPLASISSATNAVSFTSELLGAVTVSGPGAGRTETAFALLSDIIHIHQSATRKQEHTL

[2] = biological target: T2, canavanine-γ-lyase (CanγL); aminotransferase AT (Pseudomonas alvandae, UniProt P0DXC4); test: UV/Vis spectra of the enzyme reaction; type: binding; settings: covalent (internal aldimine with K213); canavanine as substrate
T2 sequence (P0DXC4 1-400): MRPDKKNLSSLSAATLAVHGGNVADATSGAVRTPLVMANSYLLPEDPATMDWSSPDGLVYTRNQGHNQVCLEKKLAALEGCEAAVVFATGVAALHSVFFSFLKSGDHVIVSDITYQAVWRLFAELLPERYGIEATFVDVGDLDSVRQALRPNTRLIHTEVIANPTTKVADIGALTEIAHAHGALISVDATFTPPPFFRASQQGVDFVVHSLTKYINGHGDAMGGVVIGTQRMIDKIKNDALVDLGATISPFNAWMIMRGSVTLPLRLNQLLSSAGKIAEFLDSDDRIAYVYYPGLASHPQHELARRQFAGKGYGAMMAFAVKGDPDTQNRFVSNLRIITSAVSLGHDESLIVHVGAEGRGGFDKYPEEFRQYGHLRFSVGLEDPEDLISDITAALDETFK

[3] = biological target: T3, aldehyde-dehydrogenase 2 (AC) (Pseudomonas alvandae, UniProt P0DXC6); test: 1H-NMR of coupled reaction homoserine to fumarate; type: biochemical; settings: aspartate semialdehyde formed in situ from homoserine by HD; with AAL
T3 sequence (P0DXC6 1-485): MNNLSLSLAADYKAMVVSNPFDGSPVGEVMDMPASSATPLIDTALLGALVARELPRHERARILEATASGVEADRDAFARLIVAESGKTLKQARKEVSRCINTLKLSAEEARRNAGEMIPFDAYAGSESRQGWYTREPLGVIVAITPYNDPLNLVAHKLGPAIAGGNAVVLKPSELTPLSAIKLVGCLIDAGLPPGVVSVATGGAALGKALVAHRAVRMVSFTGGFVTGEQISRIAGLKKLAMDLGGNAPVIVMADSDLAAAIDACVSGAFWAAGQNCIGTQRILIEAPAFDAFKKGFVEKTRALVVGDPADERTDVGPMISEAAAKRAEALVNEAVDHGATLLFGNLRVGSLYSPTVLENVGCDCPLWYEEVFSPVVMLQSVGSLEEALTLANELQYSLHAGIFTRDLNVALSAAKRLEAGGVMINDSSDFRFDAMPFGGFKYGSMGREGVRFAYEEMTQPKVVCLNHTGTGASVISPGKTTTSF

[4] = biological target: T4, aldehyde-dehydrogenase 1 (AH) (Pseudomonas alvandae, UniProt P0DXC7); test: 1H-NMR of coupled reaction homoserine to fumarate; type: biochemical; settings: aspartate semialdehyde formed in situ from homoserine by HD; with AAL
T4 sequence (P0DXC7 1-470): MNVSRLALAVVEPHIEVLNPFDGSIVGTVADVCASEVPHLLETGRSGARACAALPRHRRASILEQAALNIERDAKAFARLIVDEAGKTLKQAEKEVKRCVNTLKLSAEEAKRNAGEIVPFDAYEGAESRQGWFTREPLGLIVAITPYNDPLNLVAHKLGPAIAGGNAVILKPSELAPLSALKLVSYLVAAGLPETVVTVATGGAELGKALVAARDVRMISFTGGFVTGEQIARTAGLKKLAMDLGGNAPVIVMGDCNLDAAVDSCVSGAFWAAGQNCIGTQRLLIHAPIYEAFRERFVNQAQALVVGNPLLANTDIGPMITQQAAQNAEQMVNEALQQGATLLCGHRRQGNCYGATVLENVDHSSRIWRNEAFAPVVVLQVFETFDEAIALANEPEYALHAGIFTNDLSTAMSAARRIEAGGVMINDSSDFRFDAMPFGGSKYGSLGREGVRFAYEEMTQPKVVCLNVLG

[5] = biological target: T5, ammonium–aspartate–lyase (AAL) (Pseudomonas alvandae, UniProt P0DXC8); test: 1H-NMR of coupled reaction homoserine to fumarate; type: biochemical; settings: aspartate formed in situ by HD with AH or AC
T5 sequence (P0DXC8 1-474): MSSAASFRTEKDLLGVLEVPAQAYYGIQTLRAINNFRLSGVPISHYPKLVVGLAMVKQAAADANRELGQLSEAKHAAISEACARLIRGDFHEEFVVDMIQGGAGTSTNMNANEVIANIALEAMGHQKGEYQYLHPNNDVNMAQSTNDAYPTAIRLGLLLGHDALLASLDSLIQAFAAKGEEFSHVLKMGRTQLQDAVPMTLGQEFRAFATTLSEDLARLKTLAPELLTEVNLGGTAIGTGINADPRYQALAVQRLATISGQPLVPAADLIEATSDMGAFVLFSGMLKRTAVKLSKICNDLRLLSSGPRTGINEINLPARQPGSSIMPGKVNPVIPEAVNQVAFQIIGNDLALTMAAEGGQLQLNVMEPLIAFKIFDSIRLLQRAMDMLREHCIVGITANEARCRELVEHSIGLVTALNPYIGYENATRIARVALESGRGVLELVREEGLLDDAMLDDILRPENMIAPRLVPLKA

[6] = biological target: T1, homoserine-dehydrogenase (HD); test: NADH formation; type: biochemical; settings: NAD+ as co-substrate

`NC(=O)c1ccc[n+]([C@@H]2O[C@H](COP(=O)(O)OP(=O)(O)OC[C@H]3O[C@@H](n4cnc5c(N)ncnc54)[C@H](O)[C@@H]3O)[C@@H](O)[C@H]2O)c1` [NAD+] was tested. Which NADH formation [1] did it give?
Its NADH formation is “the reaction of HD was only dependent on the cofactor NAD^+”.

For `Cc1ncc(COP(=O)(O)O)c(C=O)c1O` [PLP], which “UV/Vis spectra of the enzyme reaction; K213A comparison” value [2] is on record?
The value was “Time-dependent increase of presumed aldimine and quinonoid peaks were observed for the wt enzyme”.

`N[C@@H](CC=O)C(=O)O` [aspartate semialdehyde] was tested. Which “1H-NMR of coupled reaction homoserine to fumarate” value (“1H-NMR … to fumarate” for short) [3] did it give?
The value was “purified HD with either of the two aldehyde-dehydrogenases AH or AC and AAL”.

And the “1H-NMR … to fumarate” value [4]?
Its value is “purified HD with either of the two aldehyde-dehydrogenases AH or AC and AAL”.

Which “1H-NMR … to fumarate” value [5] does the source give for `N[C@@H](CC(=O)O)C(=O)O` [aspartate] here?
The value was “AH or AC and AAL the formation of fumarate via aspartate was observed”.

How did the “NADH formation; 1H-NMR of the coupled reaction” value [6] turn out when `N[C@@H](CCO)C(=O)O` [homoserine] was run?
The value was “homoserine-dehydrogenase (HD) which catalyzes the conversion of homoserine and NAD+”.
